# US10111873B1, “Dihydropyrimidinone derivatives” (KING SAUD UNIVERSITY, priority 2018, dated 2018)
row,SMILES,melting point [°C]
1,"O=C1NC=C(C(=O)c2ccc(N3CCNCC3)cc2)C(c2cccc(O)c2)N1 (stereo not shown) [DHPM-8, 4-(3-Hydroxyphenyl)-5-[4-(piperazin-1-yl)benzoyl]-3,4-dihydropyrimidin-2(1H)-one]",158 to 160
2,"O=C1NC=C(C(=O)c2ccc(N3CCNCC3)cc2)C(c2ccc(Cl)cc2)N1 (stereo not shown) [DHPM-5, 4-(4-Chlorophenyl)-5-[4-(piperazin-1-yl)benzoyl]-3,4-dihydropyrimidin-2(1H)-one]",160 to 162
3,"O=C1NC=C(C(=O)c2ccc(N3CCNCC3)cc2)C(c2ccc([N+](=O)[O-])cc2)N1 (stereo not shown) [DHPM-3, 4-(4-Nitrophenyl)-5-[4-(piperazin-1-yl)benzoyl]-3,4-dihydropyrimidin-2(1H)-one]",175 to 177
4,"CCOc1cccc(C2NC(=O)NC=C2C(=O)c2ccc(N3CCNCC3)cc2)c1 (stereo not shown) [DHPM-10, 4-(3-Ethoxyphenyl)-5-[4-(piperazin-1-yl)benzoyl]-3,4-dihydropyrimidin-2(1H)-one]",88 to 90
5,"O=C1NC=C(C(=O)c2ccc(N3CCNCC3)cc2)C(c2ccc(O)cc2)N1 (stereo not shown) [DHPM-7, 4-(4-Hydroxyphenyl)-5-[4-(piperazin-1-yl)benzoyl]-3,4-dihydropyrimidin-2(1H)-one]",210 to 212
6,"CCOc1ccc(C2NC(=O)NC=C2C(=O)c2ccc(N3CCOCC3)cc2)cc1 (stereo not shown) [DHPM-20, 4-(4-ethoxyphenyl)-5-[4-(morpholin-4-yl)benzoyl]-3,4-dihydropyrimidin-2(1H)-one]",200 to 202
7,"COc1cccc(C2NC(=O)NC=C2C(=O)c2ccc(N3CCNCC3)cc2)c1 (stereo not shown) [DHPM-9, 4-(3-methoxyphenyl)-5-[4-(piperazin-1-yl)benzoyl]-3,4-dihydropyrimidin-2(1H)-one]",118 to 120
8,"O=C1NC=C(C(=O)c2ccc(N3CCNCC3)cc2)C(c2ccccc2[N+](=O)[O-])N1 (stereo not shown) [DHPM-2, 4-(2-Nitrophenyl)-5-[4-(piperazin-1-yl)benzoyl]-3,4-dihydropyrimidin-2(1H)-one]",170 to 172
9,"COc1ccccc1C1NC(=O)NC=C1C(=O)c1ccc(N2CCNCC2)cc1 (stereo not shown) [DHPM-6, 4-(2-methoxyphenyl)-5-[4-(piperazin-1-yl)benzoyl]-3,4-dihydropyrimidin-2(1H)-one]",120 to 122
10,"O=C1NC=C(C(=O)c2ccc(N3CCNCC3)cc2)C(c2ccccc2)N1 (stereo not shown) [DHPM-1, 4-phenyl-5-[4-(piperazin-1-yl)benzoyl]-3,4-dihydropyrimidin-2(1H)-one]",150 to 152

# Results, then the molecule that gave them:
row,melting point [°C],SMILES
1,205 to 207,"O=C1NC=C(C(=O)c2ccc(N3CCOCC3)cc2)C(c2cccc([N+](=O)[O-])c2)N1 (stereo not shown) [DHPM-14, 5-[4-(morpholin-4-yl)benzoyl]-4-(3-nitrophenyl)-3,4-dihydropyrimidin-2(1H)-one]"
2,120 to 122,"O=C1NC=C(C(=O)c2ccc(N3CCOCC3)cc2)C(c2cccc(O)c2)N1 (stereo not shown) [DHPM-18, 4-(3-hydroxyphenyl)-5-[4-(morpholin-4-yl)benzoyl]-3,4-dihydropyrimidin-2(1H)-one]"
3,178 to 180,"COc1ccccc1C1NC(=O)NC=C1C(=O)c1ccc(N2CCOCC2)cc1 (stereo not shown) [DHPM-16, 4-(2-methoxyphenyl)-5-[4-(morpholin-4-yl)benzoyl]-3,4-dihydropyrimidin-2(1H)-one]"
4,118 to 120,"O=C1NC=C(C(=O)c2ccc(N3CCOCC3)cc2)C(c2ccc(O)cc2)N1 (stereo not shown) [DHPM-17, 4-(4-hydroxyphenyl)-5-[4-(morpholin-4-yl)benzoyl]-3,4-dihydropyrimidin-2(1H)-one]"
5,180 to 182,"O=C1NC=C(C(=O)c2ccc(N3CCNCC3)cc2)C(c2cccc([N+](=O)[O-])c2)N1 (stereo not shown) [DHPM-4, 4-(3-Nitrophenyl)-5-[4-(piperazin-1-yl)benzoyl]-3,4-dihydropyrimidin-2(1H)-one]"
6,202 to 204,"O=C1NC=C(C(=O)c2ccc(N3CCOCC3)cc2)C(c2ccc([N+](=O)[O-])cc2)N1 (stereo not shown) [DHPM-13, 5-[4-(morpholin-4-yl)benzoyl]-4-(4-nitrophenyl)-3,4-dihydropyrimidin-2(1H)-one]"
7,198 to 200,"O=C1NC=C(C(=O)c2ccc(N3CCOCC3)cc2)C(c2ccccc2[N+](=O)[O-])N1 (stereo not shown) [DHPM-12, 5-[4-(morpholin-4-yl)benzoyl]-4-(2-nitrophenyl)-3,4-dihydropyrimidin-2(1H)-one]"
8,258 to 260,"O=C1NC=C(C(=O)c2ccc(N3CCOCC3)cc2)C(c2ccccc2)N1 (stereo not shown) [DHPM-11, 5-[4-(morpholin-4-yl)benzoyl]-4-phenyl-3,4-dihydropyrimidin-2(1H)-one]"
9,288 to 290,"O=C1NC=C(C(=O)c2ccc(N3CCOCC3)cc2)C(c2ccc(Cl)cc2)N1 (stereo not shown) [DHPM-15, 4-(4-chlorophenyl)-5-[4-(morpholin-4-yl)benzoyl]-3,4-dihydropyrimidin-2(1H)-one]"
